The values below come from US20240366611A1, “METHODS OF TREATING A DISEASE OR DISORDER” (Ascentage Pharma (Suzhou) Co., Ltd., priority 2021, published 2024).

Common to all, as to type: cell-based
Holding throughout (settings): 7 days of treatment

Test [1] deals with HBG mRNA in human CD34+ HSC. Put plainly: HBG mRNA level in human CD34+ HSC (qRT-PCR). As to the method:
(§1) Human cord blood CD34+ hematopoietic stem cells (HSC) were first expanded in the expansion medium (StemSpan SFEM II+StemSpan CD34 Expansion Supplement) to achieve the desired number of cells, and then differentiated in differentiation medium (StemSpan SFEM II+StemSpan Erythroid Expansion Supplement (100×)) for three days without drug treatment. Various concentrations of Cpd. 73 were added on the fourth day of differentiation and further incubated with the cells for another 7 days. 33 mM Hydroxyurea was used as the control.
After 7 days of treatment, the cells were collected. Total RNA was isolated using Trizol LS reagent (Invitrogen-10296028) and 1 μg RNA of each sample was reverse transcribed into cDNA using High Capacity cDNA Reverse Transcription Kit (AB (Applied Biosystems)-4374966), according to the manufacturer's instructions. Quantitative RT-PCR (qRT-PCR) was performed using an Applied Biosystems QuantStudio 7 Flex system with the primer pairs shown as below: hHBG-mRNA-F1 (5′-[…]-3′) and hHBG-mRNA-R1 (5′-TCACTCAGCTGGGCAAAGG-3′). […] The HBG mRNA level were 1.09-, 2.49-, 7.84-, 9.69- and 12.2-folds of the vehicle group when the cells were treated with 0.01 μM, 0.03 μM, 0.1 μM, 0.3 μM and 1.0 μM Cpd. 73 respectively. […] 73 which increased HBG mRNA by 12.2 folds (p<0.0001, vs. vehicle). The HBG mRNA level of cells treated with 33 mM Hydroxyurea, an approved medicine for SCD, was 6.46-folds of the vehicle group.
(Quantitative PCR measures a nucleic acid by following its amplification.)

A further test relates to HbF in human CD34+ HSC. Put plainly: HbF concentration in human CD34+ HSC by ELISA. Set-up: HbF concentration, folds of the vehicle group: dose or concentration left out as unconfirmed. As to the method: as §1
After 7 days of treatment, the cells were collected and lysed. The concentration of HbF in the cell lysate was determined using a Human Fetal Hemoglobin (HBF) ELISA Kit (MyBioSource, MBS2024474). […] The cellular HbF concentration were 1.27-, 1.39-, 1.52-, 1.58- and 1.69-folds of the vehicle group when the cells were treated with 0.01 μM, 0.03 μM, 0.1 μM, 0.3 μM and 1.0 μM Cpd. 73 respectively. […] 73 where the cellular HbF concentration was 1.69-folds of the vehicle group (p<0.01). HbF concentration of cells treated with 33 mM Hydroxyurea was 1.18-folds of the vehicle group. Clinically, small increases of HbF concentration (1-5%) have the potential to provide clinical benefits to all SCD patients.
Background: An ELISA detects its analyte on a solid surface through an enzyme-linked reagent.

Test [2] deals with HbF+ cells in human CD34+ HSC. As to the kind of experiment: HbF+ cell % in human CD34+ HSC by FACS. As to the method:
as §1
After 7 days of treatment, the cells were collected and stained with PE-conjugated Mouse Anti-Human Fetal Hemoglobin (BD, 560041). The percentage of HbF+ cells were quantified by FACS. […] 73 respectively. […] 73 where HbF+ cell % was 2.58-folds of the vehicle group (p<0.0001). The % of HbF+ cells was 1.82-folds of the vehicle group when the cells were treated with 33 mM Hydroxyurea.
For orientation: In flow cytometry, cells or beads pass a laser one at a time.

In the case of `NC(=O)NO` [Hydroxyurea, reference compound], in test [1], the “HBG mRNA level, folds of the vehicle group” value worked out at 6.46 folds. Besides, the “HbF concentration, folds of the vehicle group” value in the test on HbF in human CD34+ HSC worked out at 1.18 folds. In test [2], the “% of HbF+ cells, folds of the vehicle group” value is 1.82 folds.
